Measurements as given in patent EP0019589A1, “Tripeptide derivatives and their use in a process for determining enzymes” (Pentapharm A.G., priority 1979, dated 1980).
Non-standard residues stand in square brackets, D forms with d. Residues, ends and D or L forms follow the SMILES beside them. *: point of attachment. Cha = N[C@@H](CC1CCCCC1)C(=O)O; dCha = N[C@H](CC1CCCCC1)C(=O)O; dChg = N[C@@H](C(=O)O)C1CCCCC1; dPhg = N[C@@H](C(=O)O)c1ccccc1; pNA = O=[N+]([O-])c1ccc(N*)cc1; dNle = CCCC[C@@H](N)C(=O)O; dNva = CCC[C@@H](N)C(=O)O; dAbu = CC[C@@H](N)C(=O)O

Legend:
Type in all cases: biochemical
Humanthrombin = target: T1, Humanthrombin (Homo sapiens, UniProt P00734); experiment: Cleavage of chromogenic substrate by human NIH thrombin; conditions: 1 NIH-Einheit human thrombin, per min; Substratkonzentration 2 x 10^-4 molar
T1 construct: Humanplasmin und hu-manem NIH-Thrombin
Summary of the method: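 Thrombin hydrolysis of chromogenic p-nitroanilide substrate read spectrophotometrically at 405 nm; fluorogenic naphthylamine, methylcoumarylamine or di(methoxycarbonyl)phenylamine substrates read continuously by fluorescence emission at 400-470 nm. Activity taken as product formed per unit time; 1 µmol product/min defined as 1 enzyme unit for a given substrate.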

[1] = target: T2, Submandibularis-Kallikrein (Homo sapiens, UniProt P06870); experiment: Cleavage of chromogenic substrate by submandibular (glandular) kallikrein in human sputum; conditions: 1 ml human sputum, per min; Substratkonzentration 2 x 10^-4 molar
T2 construct: Man mischt 0,5 ml Sputum mit 2 ml TRIS-Imidazol-Puffer; from tissue; host or cells: human sputum
Summary of the method: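 Sputum mixed with TRIS-imidazole buffer (ionic strength 1.0), preincubated 5 min at 37°C and centrifuged; supernatant incubated with aqueous substrate solution (2 x 10^-3 M, stock). p-Nitroaniline release followed continuously at 405 nm for 5-10 min; activity expressed as mU per ml sputum from ΔOD/min.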

Urinkallikrein = target: T3, Urinkallikrein (Homo sapiens, UniProt P06870); experiment: Cleavage of chromogenic substrate by urinary kallikrein in human urine; conditions: 1 ml human urine (pooled morning urine of healthy persons), per min; Substratkonzentration 2 x 10^-4 molar
T3 construct: 1 ml Urin und 1 ml TRIS-Imidazol-Puffer mit pH 7,9; from tissue; host or cells: human urine

Humanplasmin = target: T4, Humanplasmin (Homo sapiens, UniProt P00747); experiment: Cleavage of chromogenic substrate by human plasmin; conditions: 1 CU-Einheit human plasmin, per min; Substratkonzentration 2 x 10^-4 molar
T4 construct: da bei der Aktivierung aus 1 Molekül Plasminogen 1 Molekül Plasmin entsteht
T4 sequence (P00747 581-810 limits assumed): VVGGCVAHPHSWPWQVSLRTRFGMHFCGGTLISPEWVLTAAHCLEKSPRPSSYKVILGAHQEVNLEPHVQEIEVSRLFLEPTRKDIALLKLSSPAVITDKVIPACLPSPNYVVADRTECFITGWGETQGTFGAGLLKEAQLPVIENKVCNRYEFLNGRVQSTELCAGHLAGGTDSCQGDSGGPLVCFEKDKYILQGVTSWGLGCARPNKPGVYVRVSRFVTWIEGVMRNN
T4 sequence (P00747 97-580 partner limits assumed): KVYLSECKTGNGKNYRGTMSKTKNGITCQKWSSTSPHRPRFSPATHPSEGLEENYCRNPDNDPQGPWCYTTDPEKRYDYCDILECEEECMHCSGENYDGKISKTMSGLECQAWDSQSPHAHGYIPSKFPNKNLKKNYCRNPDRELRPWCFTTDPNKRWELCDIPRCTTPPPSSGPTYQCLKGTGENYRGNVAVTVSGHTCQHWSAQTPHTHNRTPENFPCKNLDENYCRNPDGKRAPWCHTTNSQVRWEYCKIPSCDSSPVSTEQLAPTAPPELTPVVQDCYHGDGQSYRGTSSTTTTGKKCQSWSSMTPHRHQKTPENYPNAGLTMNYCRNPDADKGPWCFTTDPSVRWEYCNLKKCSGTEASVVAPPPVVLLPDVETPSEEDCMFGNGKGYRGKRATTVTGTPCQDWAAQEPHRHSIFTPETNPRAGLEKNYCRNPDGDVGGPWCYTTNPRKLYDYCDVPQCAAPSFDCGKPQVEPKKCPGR

T3 sequence (P06870 25-262): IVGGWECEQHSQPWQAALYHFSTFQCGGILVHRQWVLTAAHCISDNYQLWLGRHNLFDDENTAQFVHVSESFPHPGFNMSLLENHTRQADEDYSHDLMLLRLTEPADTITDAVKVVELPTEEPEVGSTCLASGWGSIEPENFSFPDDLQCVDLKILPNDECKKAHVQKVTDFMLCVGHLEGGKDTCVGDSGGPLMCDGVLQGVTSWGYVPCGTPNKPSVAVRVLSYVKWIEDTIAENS
T2 sequence (P06870 25-262): as above

Compound | Menge des durch 1 NIH-Einheit Thrombin pro Min. freigesetzten Spaltproduktes R-NH2 in Nanomol (Humanthrombin) (Humanthrombin) | Menge des durch 1 ml Humansputum pro Min. freigesetzten Spaltproduktes R-NH2 in Nanomol (Submandibularis-Kallikrein) [1] | Menge des durch 1 ml Humanurin pro Min. freigesetzten Spaltproduktes R-NH2 in Nanomol (Urinkallikrein) (Urinkallikrein) | Menge des durch 1 CU-Einheit Humanplasmin pro Min. freigesetzten Spaltproduktes R-NH2 in Nanomol (Humanplasmin) (Humanplasmin)
CC(C)[C@@H](N)C(=O)N[C@@H](CC1CCC(O)CC1)C(=O)N[C@@H](CCCCN)C(=O)Nc1ccc([N+](=O)[O-])cc1 (stereo partly drawn) [Beispiel 34, 2AcOH.H-D-Val-CHT-Lys-pNA] | 0,4 Nanomol | 16,5 Nanomol | 1,40 Nanomol | 532 Nanomol
NCCCC[C@H](NC(=O)[C@H](CC1CCC(O)CC1)NC(=O)[C@H](N)c1ccccc1)C(=O)Nc1ccc([N+](=O)[O-])cc1 (stereo partly drawn) [Beispiel 35, 2AcOH.H-D-Ph'Gly-CHT-Lys-pNA] | 0,5 Nanomol | 0,9 Nanomol | 0,10 Nanomol | 894 Nanomol
CC(C)C[C@@H](N)C(=O)N[C@@H](CC1CCCCC1)C(=O)N[C@@H](CCCNC(=N)N)C(=O)Nc1ccc([N+](=O)[O-])cc1 [Beispiel 36, 2HBr.H-D-Leu-CHA-Arg-pNA] (H-[dL]-[Cha]-Arg-pNA) | 6,8 Nanomol | 35,9 Nanomol | 3,11 Nanomol | 1069 Nanomol
CCCC[C@@H](N)C(=O)N[C@@H](CC1CCCCC1)C(=O)N[C@@H](CCCNC(=N)N)C(=O)Nc1ccc([N+](=O)[O-])cc1 [Beispiel 37, 2HBr.H-D-Nleu-CHA-Arg-pNA] (H-[dNle]-[Cha]-Arg-pNA) | 7,3 Nanomol | 28,1 Nanomol | 2,08 Nanomol | 1179 Nanomol
CCC[C@@H](N)C(=O)N[C@@H](CC1CCCCC1)C(=O)N[C@@H](CCCNC(=N)N)C(=O)Nc1ccc([N+](=O)[O-])cc1 [Beispiel 38, 2HBr.H-D-Nval-CHA-Arg-pNA] (H-[dNva]-[Cha]-Arg-pNA) | 5,1 Nanomol | 41,3 Nanomol | 3,12 Nanomol | 969 Nanomol
N=C(N)NCCC[C@H](NC(=O)[C@H](CC1CCCCC1)NC(=O)[C@H](N)Cc1ccccc1)C(=O)Nc1ccc([N+](=O)[O-])cc1 [Beispiel 39, 2HBr.H-D-Phe-CHA-Arg-pNA] (H-[dF]-[Cha]-Arg-pNA) | 3,9 Nanomol | 28,5 Nanomol | 2,14 Nanomol | 814 Nanomol
C[C@@H](N)C(=O)N[C@@H](CC1CCCCC1)C(=O)N[C@@H](CCCNC(=N)N)C(=O)Nc1ccc([N+](=O)[O-])cc1 [Beispiel 40, 2HBr.H-D-Ala-CHA-Arg-pNA] (H-[dA]-[Cha]-Arg-pNA) | 1,5 Nanomol | 22,4 Nanomol | 1,73 Nanomol | 433 Nanomol
CC[C@@H](N)C(=O)N[C@@H](CC1CCCCC1)C(=O)N[C@@H](CCCNC(=N)N)C(=O)Nc1ccc([N+](=O)[O-])cc1 [Beispiel 41, 2HBr.H-D-But-CHA-Arg-pNA] (H-[dAbu]-[Cha]-Arg-pNA) | 2,8 Nanomol | 31,2 Nanomol | 2,99 Nanomol | 623 Nanomol
N=C(N)NCCC[C@H](NC(=O)[C@H](Cc1ccc(O)cc1)NC(=O)[C@H](N)C1CCCCC1)C(=O)Nc1ccc([N+](=O)[O-])cc1 [Beispiel 42, 2HBr.H-D-CHG-Tyr-Arg-pNA] (H-[dChg]-Tyr-Arg-pNA) | 2,0 Nanomol | 3,9 Nanomol | 0,49 Nanomol | 969 Nanomol
N=C(N)NCCC[C@H](NC(=O)[C@H](Cc1ccc(O)cc1)NC(=O)[C@H](N)CC1CCCCC1)C(=O)Nc1ccc([N+](=O)[O-])cc1 [Beispiel 43, 2HBr.H-D-CHA-Tyr-Arg-pNA] (H-[dCha]-Tyr-Arg-pNA) | 8,3 Nanomol | 5,2 Nanomol | 0,49 Nanomol | 1407 Nanomol
CCC[C@@H](N)C(=O)N[C@@H](Cc1ccc(O)cc1)C(=O)N[C@@H](CCCNC(=N)N)C(=O)Nc1ccc([N+](=O)[O-])cc1 [Beispiel 44, 2HBr.H-D-Nval-Tyr-Arg-pNA] (H-[dNva]-Tyr-Arg-pNA) | 1,8 Nanomol | 4,9 Nanomol | 0,42 Nanomol | 1219 Nanomol
N=C(N)NCCC[C@H](NC(=O)[C@H](Cc1ccc(O)cc1)NC(=O)[C@H](N)Cc1ccccc1)C(=O)Nc1ccc([N+](=O)[O-])cc1 [Beispiel 46, 2HBr.H-D-Phe-Tyr-Arg-pNA] (H-[dF]-Tyr-Arg-pNA) | 2,6 Nanomol | 6,1 Nanomol | 0,26 Nanomol | 843 Nanomol
N=C(N)NCCC[C@H](NC(=O)[C@H](Cc1ccc(O)cc1)NC(=O)[C@H](N)c1ccccc1)C(=O)Nc1ccc([N+](=O)[O-])cc1 [Beispiel 47, 2HBr.H-D-Ph'Gly-Tyr-Arg-pNA] (H-[dPhg]-Tyr-Arg-pNA) | 1,0 Nanomol | 7,0 Nanomol | 0,19 Nanomol | 818 Nanomol
C[C@H](NC(=O)[C@H](N)C1CCCCC1)C(=O)N[C@@H](CCCNC(=N)N)C(=O)Nc1ccc([N+](=O)[O-])cc1 [Beispiel 48, 2HBr.H-D-CHG-Ala-Arg-pNA] (H-[dChg]-Ala-Arg-pNA) | 158 Nanomol | 9,5 Nanomol | 0,72 Nanomol | 239 Nanomol
C[C@H](NC(=O)[C@H](N)CC1CCCCC1)C(=O)N[C@@H](CCCNC(=N)N)C(=O)Nc1ccc([N+](=O)[O-])cc1 [Beispiel 49, 2HBr.H-D-CHA-Ala-Arg-pNA] (H-[dCha]-Ala-Arg-pNA) | 163,5 Nanomol | 10,6 Nanomol | 0,66 Nanomol | 389 Nanomol
CC(C)C[C@H](NC(=O)[C@H](N)Cc1ccccc1)C(=O)N[C@@H](CCCNC(=N)N)C(=O)Nc1ccc([N+](=O)[O-])cc1 [Beispiel 50, 2HBr.H-D-Phe-Leu-Arg-pNA] (H-[dF]-Leu-Arg-pNA) | 14,4 Nanomol | 6,8 Nanomol | 0,61 Nanomol | 313 Nanomol
CC(C)C[C@H](NC(=O)[C@H](N)CC1CCC(O)CC1)C(=O)N[C@@H](CCCNC(=N)N)C(=O)Nc1ccc([N+](=O)[O-])cc1 (stereo partly drawn) [Beispiel 51, 2HBr.H-D-CHT-Leu-Arg-pNA] | 58,1 Nanomol | 11,7 Nanomol | 0,33 Nanomol | 596 Nanomol
